How the values were obtained:
Assay type in all cases: cell-based, human
[1] = tested on: BXPC3 cells; test: MTT assay of BXPC3 cultures, single 50 μM dose; parameters: MTT assay result, run 1 / MTT assay result, run 2 / MTT assay result, run 3 / MTT assay result, run 4 / MTT assay result, run 5 / MTT assay result, run 6 / MTT assay result, run 7 / MTT assay result, av (average) / MTT assay result, av-blank / MTT assay result, av: unit not given here; settings: BXPC3, 50 μM; for MTT assay result, av-blank: average minus blank
Method: (§1) BXPC3 cells were cultured in complete […] media containing 10% fetal bovine serum (FBS) and 1% penicillin-streptomycin, and 1% L-glutamine. BxPc-3 pancreatic cancer cells were cultured in complete RPMI media containing 10% fetal bovine serum (FBS), and 1% penicillin-streptomycin, 1% HEPES buffer, 1% sodium pyruvate and 1% L-glutamine HPDE6-C7 cells were cultured in serum-free keratinocyte SFM media. All cells were maintained at 37° C. in a humidified incubator with 5% CO2. The cells were treated with a single 50 μM dose of vehicle (vehicle only, may be a solvent), T3 alpha (alpha tocotrienol), T3 beta (beta tocotrienol), T3 gamma (gamma tocotrienol), T3 delta (delta tocotrienol), T alpha (alpha tocopherol), T beta (beta tocopherol), TS (tocopherol succinate), GG (geranylgeraniol), SA (succinic acid). A control (no treatment) culture was grown alongside the treatments for comparison. Cell viability was measured using MTT assay at preselect times of 48 or 120 hours after treatment.

[2] = tested on: MiaPaCa-2 cells; test: MTS assay of MiaPaCa2 cultures, single 50 μM dose; settings: MiaPaCa2, 50 μM
Method: as §1, with “MiaPaCa-2” for “BXPC3”, “Cell viability was measured using MTT assay at preselect times of 48 or 120 hours after treatment.” left out

[3] = tested on: MiaPaCa-2 cells; test: MTT assay of MiaPaCa2 cultures, single 50 μM dose; parameters: rel amt (relative value set to the control): unit not given here; settings: MiaPaCa2, 50 μM; for MTT assay result, av-blank: average minus blank; for MTT assay result, av: average of 7 runs
Method: MiaPaCa-2, BxPc-3, and HPDE6-C7 cells were cultured as described above, and treated with a single 50 μM dose of vehicle (ethanol extracted olive oil), T3 alpha (alpha tocotrienol), T3 beta (beta tocotrienol), T3 gamma (gamma tocotrienol), T3 delta (delta tocotrienol), T alpha (alpha tocopherol), T beta (beta tocopherol), TS (tocopherol succinate), GG (geranylgeraniol), SA (succinic acid). A control culture (vehicle only with no treatment) was grown alongside the treatments for comparison. Cell viability was measured using MTT assay at preselect times of 48 or 120 hours after treatment.

CC(C)=CCC/C(C)=C/CC/C(C)=C/CC[C@]1(C)CCc2c(C)c(O)cc(C)c2O1 [T3 beta, beta tocotrienol]
rel amt (relative value set to the control) ([1]; 48 hours): 95 | MTT assay result, av-blank ([1]; 48 hours): 0.216 | MTT assay result, av (average) ([1]; 48 hours, average of 7 runs): 0.265 | MTT assay result, run 1 ([1]; 48 hours): 0.263 | MTT assay result, run 2 ([1]; 48 hours): 0.261 | MTT assay result, run 3 ([1]; 48 hours): 0.27 | MTT assay result, run 4 ([1]; 48 hours): 0.254 | MTT assay result, run 5 ([1]; 48 hours): 0.278 | MTT assay result, run 6 ([1]; 48 hours): 0.255 | MTT assay result, run 7 ([1]; 48 hours): 0.274 | rel amt (relative value set to the control) ([1]; 120 hours (5 days)): 72 | MTT assay result, av-blank ([1]; 120 hours (5 days)): 0.417 | MTT assay result, av ([1]; 120 hours (5 days), average of 7 runs): 0.472 | MTT assay result, run 1 ([1]; 120 hours (5 days)): 0.468 | MTT assay result, run 2 ([1]; 120 hours (5 days)): 0.512 | MTT assay result, run 3 ([1]; 120 hours (5 days)): 0.495 | MTT assay result, run 4 ([1]; 120 hours (5 days)): 0.481 | MTT assay result, run 5 ([1]; 120 hours (5 days)): 0.457 | MTT assay result, run 6 ([1]; 120 hours (5 days)): 0.483 | MTT assay result, run 7 ([1]; 120 hours (5 days)): 0.411 | rel amt (relative value set to the control) ([2]; 24 hours): 79 | MTS assay result, run 1 ([2]; 24 hours): 0.17 | MTS assay result, run 2 ([2]; 24 hours): 0.179 | MTS assay result, run 3 ([2]; 24 hours): 0.184 | MTS assay result, run 4 ([2]; 24 hours): 0.152 | MTS assay result, run 5 ([2]; 24 hours): 0.172 | MTS assay result, run 6 ([2]; 24 hours): 0.182 | MTS assay result, run 7 ([2]; 24 hours): 0.179 | MTS assay result, run 8 ([2]; 24 hours): 0.19 | MTS assay result, run 9 ([2]; 24 hours): 0.176 | rel amt (relative value set to the control) ([2]; 48 hours): 61 | MTS assay result, run 1 ([2]; 48 hours): 0.193 | MTS assay result, run 2 ([2]; 48 hours): 0.137 | MTS assay result, run 3 ([2]; 48 hours): 0.227 | MTS assay result, run 4 ([2]; 48 hours): 0.223 | MTS assay result, run 5 ([2]; 48 hours): 0.231 | MTS assay result, run 6 ([2]; 48 hours): 0.272 | MTS assay result, run 7 ([2]; 48 hours): 0.225 | MTS assay result, run 8 ([2]; 48 hours): 0.27 | MTS assay result, run 9 ([2]; 48 hours): 0.222 | rel amt (relative value set to the control) ([2]; 72 hours): 69 | MTS assay result, run 1 ([2]; 72 hours): 0.349 | MTS assay result, run 2 ([2]; 72 hours): 0.316 | MTS assay result, run 3 ([2]; 72 hours): 0.328 | MTS assay result, run 4 ([2]; 72 hours): 0.298 | MTS assay result, run 5 ([2]; 72 hours): 0.323 | MTS assay result, run 6 ([2]; 72 hours): 0.287 | MTS assay result, run 7 ([2]; 72 hours): 0.281 | MTS assay result, run 8 ([2]; 72 hours): 0.275 | MTS assay result, run 9 ([2]; 72 hours): 0.307 | rel amt (relative value set to the control) ([3]; 48 hours): 62 | MTT assay result, av-blank ([3]; 48 hours): 0.193 | MTT assay result, av ([3]; 48 hours): 0.239 | MTT assay result, run 1 ([3]; 48 hours): 0.272 | MTT assay result, run 2 ([3]; 48 hours): 0.235 | MTT assay result, run 3 ([3]; 48 hours): 0.233 | MTT assay result, run 4 ([3]; 48 hours): 0.226 | MTT assay result, run 5 ([3]; 48 hours): 0.252 | MTT assay result, run 6 ([3]; 48 hours): 0.219 | MTT assay result, run 7 ([3]; 48 hours): 0.239 | rel amt (relative value set to the control) ([3]; 120 hours (5 days)): 53 | MTT assay result, av-blank ([3]; 120 hours (5 days)): 0.966 | MTT assay result, av ([3]; 120 hours (5 days)): 1.018 | MTT assay result, run 1 ([3]; 120 hours (5 days)): 0.97 | MTT assay result, run 2 ([3]; 120 hours (5 days)): 0.781 | MTT assay result, run 3 ([3]; 120 hours (5 days)): 0.977 | MTT assay result, run 4 ([3]; 120 hours (5 days)): 1.154 | MTT assay result, run 5 ([3]; 120 hours (5 days)): 1.408 | MTT assay result, run 6 ([3]; 120 hours (5 days)): 0.944 | MTT assay result, run 7 ([3]; 120 hours (5 days)): 0.891

— US8846653B2, “Delta-tocotrienol treatment and prevention of pancreatic cancer” (University of South Florida, priority 2006, dated 2014)
